PMC6537165 (Slas Discovery, 2019)

Tested on: Wolbachia pipientis (wAlbB) in C6/36 (wAlbB) cells
Test: acumen high-throughput anti-Wolbachia assay
Type: cell-based
Settings: C6/36, 168 h, read-out: anti-Wolbachia IC50 in the acumen assay

## C[C@H]1c2cccc(O)c2C(=O)C2=C(O)[C@]3(O)C(=O)C(C(N)=O)=C(O)[C@@H](N(C)C)[C@@H]3[C@@H](O)[C@@H]21 [Doxycycline, doxycycline]
  IC50: 17.8 nM
